# Measured values from US6608086B2, “Dihydropyridines and new uses thereof” (Synaptic Pharmaceutical Corporation, priority 1993, dated 2003).
# Structures can show the parent of a compound that is named as a salt.
# Key:
# human prostatic tissue = assay: In vitro human prostate model: block of phenylephrine-induced contraction of human prostatic tissue; type: cell-based; conditions: block of phenylephrine-induced contraction of human prostate
# Text: The protocol for these experiments is given below.
# Functional Properties of α1 Antagonists in the Human Prostate
# The efficacy of α1 adrenergic antagonists for the treatment of benign prostatic hyperplasia (BPH) is related to their ability to elicit relaxation of prostate smooth muscle. An index of this efficacy can be obtained by determining the potency of al antagonists to antagonize the contraction of human prostatic tissue induced by an α1 agonist “in vitro”. Furthermore, by comparing the potency of subtype selective α1 antagonists in binding assays using human α1 receptors with their potency to inhibit agonist-induced smooth muscle contraction, it is possible to determine which of the α1 adrenergic receptor subtypes is involved in the contraction of prostate smooth muscle.
# Prostatic adenomas were obtained at the time of surgery from patients with symptomatic BPH. […] The baths were maintained at 37° C. and continuously oxygenated with 5% CO2 and 95% O2. Isometric tension was measured with a Grass Instrument FT03 force transducer interfaced with a computer. Tissue strips were contracted with varying concentrations of phenylephrine after incubating for 20 minutes in the absence and presence of at least three different concentrations of antagonist. Dose-response curves for phenylephrine were constructed, and the antagonist potency (pA2) was estimated by the dose-ratio method. The concentration of some antagonists in the tissue bath was assessed by measuring the displacement of [3H]prazosin by aliquots of the bath medium, using membrane preparations of the cloned human α1C receptor. This control was necessary to account for losses of antagonist due to adsorption to the tissue bath and/or metabolism during the time the antagonists were equilibrated with the prostate tissue.
# canine prostate = assay: In vivo dog prostate model: inhibition of phenylephrine-induced increase in urethral pressure in anesthetized dogs; conditions: inhibition of phenylephrine-induced increases in urethral pressure, anesthetized dogs
# Procedure: Protocol for In Vivo Evaluation of Compounds in Canine Prostate
# Adult male mongrel dogs more than one year of age were chosen for the model. After induction of general anesthesia using sodium pentobarbital (25 mg/Kg i.v.), the animals were intubated and allowed to breathe spontaneously. An arterial catheter was inserted via the femoral artery to monitor blood pressure and i.v. line was inserted into the leg for fluid and drug administration. A constant saline infusion was maintained at 40 to 50 mL/h. Next, a seven cm lower abdominal incision was made one cm lateral to the penis.
# The bladder, prostate and a short segment of urethra were identified and isolated, without damage to the nerves or blood vessels. A cystotomy incision was made through which the pressure catheter was inserted and positioned in the prostatic urethra. The cystotomy was not closed, but the wound edges were sutured to stop bleeding. The tip of the catheter was positioned just distal to the prostate and secured in place with an O-silk tie around the urethra. A second holding suture at the bladder neck secured the catheter in place.
# Fluid, either water or saline, was pumped by a Harvard infusion pump at 0.1 mL/min through a Gould pressure transducer into the catheter. The fluid exists at a port in the catheter which is in the prostatic urethra. Occlusion of the port, by contraction of the prostate, blocks the flow and a pressure wave is created. This pressure is transmitted back through the catheter to the transducer which is attached to a Gould recorder. Squeezing the prostate gland caused an increase in urethral pressure which verified the correct position in the urethra.
# The compounds were tested as follows: A dose response curve was first generated for phenylephrine alone, in doses ranging from one μg/Kg to 50 μg/Kg. The absolute rise in urethral pressure was recorded for each dose and the next dose given when the urethral pressure returned to baseline. Phenylephrine dose response curves were generated in all animals tested. Increasing doses of compounds were then given, and the phenylephrine dose response curve repeated in the prepense of each dose of the compound. No animal received more than one compound; four animals were used to test each compound. To test for tachyphylaxis, four separate dogs were challenged with repeated phenylephrine doses for six hrs, the usual length of each experiment. From the dose-effect data, the inhibition constant (Ki) and the median-effect dose (ED50) were calculated. Both the Ki and ED50 values given are calculated by using microcomputer software and an IBM-PC.
SMILES,pA2 (human prostatic tissue),Urethral Pressure K i (canine prostate)
"CCC1=C(C(N)=O)C(c2ccc([N+](=O)[O-])cc2)C(C(=O)NCCCN2CCC(C#N)(c3ccccc3)CC2)=C(CC)N1 (single isomer, unassigned; (+)) [(+)-102]",10.43 ± 0.14,
"CCC1=C(C(N)=O)C(c2ccc([N+](=O)[O-])cc2)C(C(=O)NCCCN2CCC(c3ccccc3)(c3ccccc3)CC2)=C(CC)N1 (stereo not drawn) [Example 42, 5-carboxamido-2,6-diethyl-1,4-dihydro-4-(4-nitrophenyl)-3-{N-[3-(4,4-diphenylpiperidin-1-yl)propyl]}carboxamidopyridine]",8.92 ± 0.08,9 ± 2.5 nmol/kg
"CCC1=C(C(=O)NCCCN2CCC(c3ccccc3)(c3ccccc3)CC2)C(c2ccc([N+](=O)[O-])cc2)C(C(=O)OC)=C(C)N1 (stereo not drawn) [Example 73, 2-Ethyl-1,4-dihydro-5-methoxycarbonyl-6-methyl-4-(4-nitro) phenyl-3-(N-(3-(4,4-diphenylpiperidin-1-yl)propyl))carboxamidopyridine]",8.56 ± 0.07,
"CCC1=C(C(=O)NCCCN2CCC(c3ccccc3)(c3ccccc3)CC2)C(c2ccc([N+](=O)[O-])cc2)C(C(N)=O)=C(C)N1 (stereo not drawn) [Example 81, 5-carboxamido-2-ethyl-1,4-dihydro-6-methyl-4-(4-nitro)phenyl-3-(N-(3-(4,4-diphenylpiperidin-1-yl)propyl))carboxamidopyridine hydrochloride]",8.60 ± 0.03,
"CCC1=C(C(=O)NC)C(c2ccc([N+](=O)[O-])cc2)C(C(=O)NCCCN2CCC(c3ccccc3)(c3ccccc3)CC2)=C(CC)N1 (stereo not drawn) [Example 128, 2,6-Diethyl-1,4-dihydro-5-(N-methyl)carboxamido-4-(4-nitrophenyl)-3-{N-[3-(4,4-diphenylpiperidin-1-yl)propyl]}carboxamidopyridine]",8.21 ± 0.06,
